Test results taken from patent US20090247634A1, “Methods for identifying modulators of eoxin formation” (priority 2006, published 2009).
Several values for one entry are separate records, joined by “and”; a condition that tells them apart may be missing. Equal values may be shown once.

How the values were obtained:
[1] = test system: cord blood derived mast cells; experiment: Biosynthesis of 14,15-LTC4 in IL-4 primed cord blood derived mast cells (EIA); format: cell-based, human; details: arachidonic acid (10 μM), 5 min, n=3
Description: Mast cells play a key role in the pathophysiology of asthma. Recently, we reported that interleukin-4 (IL-4) induced the expression of 15-LO-1 in human cord blood derived mast cells in vitro and that mast cells express 15-LO-1 in vivo (4). Therefore, it was of interest to investigate if mast cells could produce 14,15-leukotrienes. IL-4 primed mast cells were incubated with arachidonic acid (10 μM) for 5 min. Supernatants were collected and analyzed using an EIA against 14,15-LTC4. Under these conditions, human mast cells released 0.8+/−0.6 pmol/10^6 cells, (n=3), indicating the capacity to synthesise and release immunoreactive 14,15-LTC4 after arachidonic acid stimulation.
Prior to incubation, CBMC cells were primed for four days with IL-4 (10 ng/ml). After mechanical removal and washing in PBS, cells were resuspended in PBS and pre-incubated with or without indomethacin (1 μM) for 2 minutes in 37° C. The CBMC cells were subsequently incubated in 37° C. with arachidonic acid for indicated time periods. Incubations were terminated either by addition of one volume of methanol (LC-MS analysis) or by rapid cool off, 0° C., and subsequently analyzed by EIA.

eosinophils [2] = experiment: Biosynthesis of 14,15-LTC4 and LTC4 in eosinophils (RP-HPLC); format: cell-based, human; details: arachidonic acid (10 μM), 5 min, 37° C.; one line per donor 1-11
Description: (§1) Human eosinophils contain abundant amounts of both 15-lipoxygenase and 5-lipoxygenase. […] The cells were incubated for five minutes at 37° C. and the amounts of 14,15-LTC4 and LTC4 were analyzed with RP-HPLC. […] Therefore, measurement of these metabolites is considered to reflect the total formation of 15-lipoxygenase derived cysteinyl-containing 14,15-leukotrienes and 5-lipoxygenase derived cysteinyl-containing leukotriens, respectively.
Isolated eosinophils (1-20×10^6/sample) were resuspended in phosphate buffered saline (1 ml/sample) and pre-incubated for 2 minutes in 37° C. (in presence or absence of indomethacin, 1 μM) prior to stimulation with ionophore A23187 (1 μM)/arachidonic acid (1 or 10 μM)/A23187 plus arachidonic acid/PGD2 (1 μM)/LTC4 (1 μM)/IL-5 (10 ng/ml)/14,15-LTC4 (10 μM) or 14,15-LTD4 (10 μM) for indicated time periods at 37° C. The incubations were terminated by addition of one volume of methanol (for analysis by RP-HPLC). For subsequent analysis by enzyme immunoassay (EIA), reactions were terminated by rapid cool off, 0° C., before centrifugation at 1200×g, 5 min. Supernatants were transferred to cryo tubes and stored in −70° C. until analyzed.
In order to get rid of cellular debris and proteins, centrifugation at 1200×g for 5 min. was performed. Supernatants were evaporated under reduced pressure and the residues resolved in methanol and transferred to a test tube. Samples were thereafter evaporated to dryness under a stream of nitrogen, and finally resuspended in 200 μl mobile phase (acetonitril:methanol:H20:acetic acid, 29:19:72:0.8, pH adjusted to 5.6 with NH3 for analysis of leukotrienes and 14,15-leukotrienes, and methanol:water:trifluoroacetic acid 70:30:0.007 for analysis of monohydroxy acids). The extracted samples were subjected to analysis in a reverse phase HPLC system as described. Briefly, samples were applied to a octadecyl reverse phase column (Chromabond ^18C, Macherey-Nagel, Duren, Germany) and elution rate was 1.2 ml/minute.

[3] = Non-enzymatic metabolism during incubation at 37° C.; format: physicochemical; details: 60 min incubation at 37° C.
Description: In order to analyze if eosinophils can metabolize 14,15-LTC4 to 14,15-LTD4 and 14,15-LTE4, eosinophils were incubated with synthetic 14,15-LTC4 or 14 (R)-cysteinyl-glycyl-15(S)-hydroxy-5,8,10,12(Z,Z,E,E)-eicosatetraenoic acid (14,15-LTD4) for 60 min at 37° C. The metabolites formed were analyzed with product ion scan at 497.2 m/z for 14,15-LTD4 and 440.2 m/z for 14,15-LTE4. The retention time and mass spectrum of a product formed (Metabolite 2) from 14,15-LTC4 were identical to synthetic 14,15-LTD4 (FIG. 30B), and a product formed (Metabolite 3) after incubation with 14,15-LTD4 had identical retention time and mass spectrum as synthetic 14 (R)-cysteinyl-15(S)-hydroxy-5,8,10,12(Z,Z,E,E)-eicosatetraenoic (14,15-LTE4) (FIG. 30C). […] (data not shown). Basically, the product ion mass spectra of 14,15-leukotrienes and corresponding 5-lipoxygenase derived cysteinyl-leukotrienes are almost identical. However, 14,15-leukotrienes form a fragment at 205 m/z, whereas the corresponding fragment in 5-lipoxygenase derived cysteinyl-leukotrienes is at 189 m/z (FIG. 31). These collision induced dissociation products are probably formed by a cleavage next to the carbon where the cysteinyl group is positioned, which is at carbon 14 for 14,15-leukotrienes and carbon 6 for leukotrienes.

[4] = test system: confluent bovine endothelium cells; experiment: Endothelial cell barrier function (TEER), Example 6a; format: cell-based
Description: Bovine aorta endothelial cells (BAEC) and human umbilical vein endothelial cells (HUVEC) were isolated and cultured with calf serum or human serum. BAEC or HUVEC in the first to fifth passages were detached by brief (2 min) trypsin-EDTA treatment (0.25% trypsin/0.01% EDTA) and replated onto 3.0 μm pore size polycarbonate filters (Tissue Culture inserts, 10 mm; NUNC, Roskilde, Denmark) or, for the purpose of visual inspection, 0.2 μm pore size Anopore inorganic membrane (transparent when wet). In order to promote cellular differentiation and enhance attachment of EC, the filters were pretreated with 50 μl Biomatrix 1 (167 μg/ml) and air-dried. EC were seeded at a density of 2×10^5 cells per filter and incubated in culture medium at 37° C. in a humidified atmosphere of 5% CO2 in air. The EC were grown to confluent monolayers, as assessed by daily microscopic observation, in transparent 0.2 μm pore size filters and measurement of the electrical resistance across the monolayer. Under these experimental conditions maximal resistance is obtained at day 7 postseeding, at which day the EC monolayers were then used in the experiments.
Rapid changes in endothelial cell (EC) barrier function in response to various arachidonic acid metabolites were analysed through continuous registration of transendothelial electrical resistance (TEER) with electrodes on each side of EC monolayer^18. For measurement of TEER, the filter insert with ECs was transferred to a resistance measurement chamber (Endohm-12, World Precision Instruments, Sarasota, Fla., USA) modified so as to assure exact positioning of the electrodes in relation to each other and to the filter insert daring repeated measurements. The chamber (low compartment) and the filter insert (upper compartment) were filled with 2 ml and 400 μl culture medium, respectively. All measurements were made at 37° C. with the equipment placed in a cell culture incubator. Direct readings of the electrical resistance were given by an ohmmeter (Evom, World Precision Instruments, Sarasota, Fla., US) connected to the electrodes of the resistance chamber. The electrical resistance of individual EC monolayers was obtained by subtracting the resistance of the corresponding naked filter coated with Biomatrix as measured prior to seeding of the EC. Thus, TEER values represent the resistance of the EC monolayer solely and depend on the development of tight junctions between adjoining endothelial cells.

eosinophils [5] = experiment: Metabolism in eosinophils after 5 min of incubation; details: 5 min of incubation, 37° C.
Description: as §1

neutrophils = experiment: Oxidative metabolism of neutrophils, lucigenin-enhanced chemiluminescence; format: cell-based, human
Description: Neutrophil and eosinophil granulocytes were purified from peripheral whole blood using a Percoll gradient and the magnetic cell separation system (MACS).
Granulocytes were primed for 30 minutes at 37° C. with either IL-5 (10.5 ng/mL) or GM-CSF (10.5 ng/mL) and subsequently stimulated with IL-5 (100 ng/mL), GM-CSF (100 ng/mL), LTB4 (10^−7M) or Eoxin (10^−8-10^−6M). Oxidative metabolism was measured by a lucigenin-enhanced chemiluminescence (CL) assay.

[6] = test system: guinea pig pulmonary parenchymal strip or ileum; details: cited from earlier work
[7] = test system: human endothelial cell (EC) monolayers; format: cell-based; details: no granulocytes present
Description: To explore the ability of 14,15-LTC4 and its metabolites 14,15-LTD4 and 14,15-LTE4 to induce alterations in vascular permeability, an established in vitro permeability assay based on assessment of changes in electrical resistance across human endothelial cell (EC) monolayers was used. Maximum stimulus-induced change in EC resistance in this model reaches down to approximately −70%.
Human umbilical vein endothelial cells (HUVEC) were isolated and cultured as previously described (24). The cells were seeded onto 3 μm pore size polycarbonate filters (Tissue Culture inserts, 10 mm; NUNC, Roskilde, Denmark) at a density of 2×10^5 cells and grown to confluent monolayers. The capacity of arachdonic acid metabolites to induce changes in barrier function of endothelial cell (EC) monolayers was analyzed through continuous registration of transendothelial electrical resistance (TEER) (24). For measurement of TEER, the filter insert with ECs was transferred to a resistance measurement chamber (Endohm-12, World Precision Instruments, Sarasota, Fla., USA) modified so as to assure exact positioning of the electrodes in relation to each other and to the filter insert during repeated measurements. […] The electrical resistance of individual EC monolayers was obtained by subtracting the resistance of the corresponding naked filter coated with Biomatrix as measured prior to seeding of the EC. […]

CCCCC/C=C\C/C=C\C/C=C\C/C=C\CCCC(=O)O [Arachidonic acid]
14,15-LTC4 released by mast cells [1]: 0.8+/−0.6 pmol/10^6 cells
14,15-LTC4 (eosinophils [2]): 58 pmol/10^7 and 74 pmol/10^7 and 34 pmol/10^7 and 12 pmol/10^7 and 26 pmol/10^7 and 46 pmol/10^7 and 16 pmol/10^7 and 22 pmol/10^7 and 48 pmol/10^7 and 40 pmol/10^7 and 32 pmol/10^7
LTC4 (eosinophils [2]): 34 pmol/10^7 and 12 pmol/10^7 and 20 pmol/10^7 and 0 pmol/10^7 (4×) and 6 pmol/10^7 and 10 pmol/10^7 and 38 pmol/10^7 and 22 pmol/10^7

CCCCC[C@H](O)[C@@H](/C=C/C=C/C=C\C/C=C\CCCC(=O)O)SC[C@H](NC(=O)CC[C@H](N)C(=O)O)C(=O)NCC(=O)O [EoxC4, 14 (R)-glutathionyl-15 (S)-hydroxy-5,8,10,12 (Z,Z,E,E)-eicosatetraenoic acid]
non-enzymatic metabolism [3]: no non-enzymatic metabolism
plasma leakage / change in TEER ([4]; 10^−7 and 10^−8 M): induce significant plasma leakage
potency relative to the most potent 5-lipoxygenase derived leukotrienes ([4]; FIG. 22): about five to ten times less potent
metabolism in eosinophils (eosinophils [5]): almost no metabolism
radical production by GM-CSF primed neutrophils (neutrophils; GM-CSF (10.5 ng/mL) primed, Eoxin 10^−8-10^−6M): induced the radical production by GM-CSF primed neutrophils in a dose-dependent manner
responders (neutrophils; GM-CSF primed neutrophils): 7-8 subjects of 13
bronchoconstriction ([6]; Drazen et al. 1981): did not induce bronchoconstriction
contractile effects ([6]; guinea pig pulmonary parenchymal strip or ileum): appear not to have contractile effects

CCCCC/C=C\C[C@@H](O)/C=C/C=C/C=C\[C@@H](O)CCCC(=O)O [LTB4, leukotriene B4]
effect on EC barrier function [7]: no effect
oxygen free radical production by non-primed neutrophils (neutrophils; non-primed blood neutrophils, GM-CSF 100 ng/mL, LTB4 10^−7M, Eoxin 10^−8-10^−6M): induced the oxygen free radical production
